From publication PMC8524670 (Pharmacology Research & Perspectives, 2021)

How the values were obtained:
OAT3 = biological target: T1, OAT3 (Homo sapiens, UniProt Q8TCC7); experiment: SLC inhibition assay in HEK293 cells; type: in vitro ADME
T1 sequence (Q8TCC7 1-542): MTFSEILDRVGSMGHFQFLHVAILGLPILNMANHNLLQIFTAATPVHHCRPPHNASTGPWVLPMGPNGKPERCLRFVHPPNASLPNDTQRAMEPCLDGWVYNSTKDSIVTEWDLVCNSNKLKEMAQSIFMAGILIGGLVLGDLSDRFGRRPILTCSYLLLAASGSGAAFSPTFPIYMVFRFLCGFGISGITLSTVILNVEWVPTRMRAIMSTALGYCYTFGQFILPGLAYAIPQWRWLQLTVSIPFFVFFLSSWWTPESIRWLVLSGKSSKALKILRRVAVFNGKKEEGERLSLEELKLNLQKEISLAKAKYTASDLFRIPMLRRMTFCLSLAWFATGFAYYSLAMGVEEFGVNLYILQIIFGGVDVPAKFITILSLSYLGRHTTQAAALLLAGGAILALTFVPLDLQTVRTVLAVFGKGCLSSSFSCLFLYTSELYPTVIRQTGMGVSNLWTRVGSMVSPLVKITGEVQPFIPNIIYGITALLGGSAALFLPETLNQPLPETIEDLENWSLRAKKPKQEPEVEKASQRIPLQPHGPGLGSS

[1] = In vitro metabolism in liver microsomes; type: in vitro ADME; details: 10 μM, 60-min incubation with NADPH and UDPGA; 11 metabolites (M1–M11)
human BCRP = biological target: T2, human BCRP (Homo sapiens, UniProt Q9UNQ0); experiment: BCRP transportation in inside-out vesicles; type: in vitro ADME; details: uptake ratio ≥2-fold indicates substrate
T2 sequence (Q9UNQ0 1-655): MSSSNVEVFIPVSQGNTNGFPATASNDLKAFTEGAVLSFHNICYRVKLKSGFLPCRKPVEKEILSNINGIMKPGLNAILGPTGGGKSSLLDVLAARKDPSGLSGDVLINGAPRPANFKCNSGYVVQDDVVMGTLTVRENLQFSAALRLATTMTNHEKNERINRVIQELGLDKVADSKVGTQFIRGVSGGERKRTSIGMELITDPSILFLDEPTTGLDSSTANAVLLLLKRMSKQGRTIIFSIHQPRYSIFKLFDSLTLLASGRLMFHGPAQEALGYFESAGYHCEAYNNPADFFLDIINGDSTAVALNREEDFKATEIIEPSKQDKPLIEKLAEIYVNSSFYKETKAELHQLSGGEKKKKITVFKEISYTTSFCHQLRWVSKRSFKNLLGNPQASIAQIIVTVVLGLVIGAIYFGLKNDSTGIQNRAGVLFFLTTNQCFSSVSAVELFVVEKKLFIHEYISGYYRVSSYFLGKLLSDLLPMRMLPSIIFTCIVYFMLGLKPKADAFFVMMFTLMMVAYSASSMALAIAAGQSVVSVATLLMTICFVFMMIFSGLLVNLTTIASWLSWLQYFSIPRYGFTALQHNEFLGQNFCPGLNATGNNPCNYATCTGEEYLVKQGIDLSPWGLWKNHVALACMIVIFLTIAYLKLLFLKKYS

BCRP = details: coadministration of zanubrutinib; cited from earlier work
OATP1B3 = biological target: T3, OATP1B3 (Homo sapiens, UniProt Q9NPD5); experiment: SLC transportation assay in HEK293 cells; type: in vitro ADME; details: uptake ratios <2 at 0.1, 0.3, 5 µM
T3 sequence (Q9NPD5 1-702): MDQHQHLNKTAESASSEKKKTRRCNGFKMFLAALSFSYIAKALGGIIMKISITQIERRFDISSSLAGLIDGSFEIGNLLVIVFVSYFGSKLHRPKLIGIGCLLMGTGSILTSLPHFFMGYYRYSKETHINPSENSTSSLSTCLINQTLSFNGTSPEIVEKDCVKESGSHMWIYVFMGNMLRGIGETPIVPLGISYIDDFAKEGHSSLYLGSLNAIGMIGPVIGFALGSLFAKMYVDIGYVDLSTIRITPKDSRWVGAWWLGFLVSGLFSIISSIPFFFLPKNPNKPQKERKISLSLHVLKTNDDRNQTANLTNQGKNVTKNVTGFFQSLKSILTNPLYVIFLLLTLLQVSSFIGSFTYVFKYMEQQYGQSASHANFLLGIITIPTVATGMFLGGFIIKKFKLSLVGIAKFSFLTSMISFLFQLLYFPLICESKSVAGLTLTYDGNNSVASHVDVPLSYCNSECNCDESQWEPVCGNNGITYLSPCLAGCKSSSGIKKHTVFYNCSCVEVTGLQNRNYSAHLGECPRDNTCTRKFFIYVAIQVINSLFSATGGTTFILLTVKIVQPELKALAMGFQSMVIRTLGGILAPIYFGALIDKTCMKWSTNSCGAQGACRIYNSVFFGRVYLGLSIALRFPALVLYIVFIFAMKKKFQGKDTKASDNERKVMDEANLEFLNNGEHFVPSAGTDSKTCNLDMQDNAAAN

CYP1A2 = experiment: in vitro; details: human
CYP2B6 [2] = biological target: T4, CYP2B6 (Homo sapiens, UniProt P20813); experiment: Time-dependent CYP inhibition in HLMs; details: 10 µM zanubrutinib, 30 min pre-incubation with HLMs and NADPH
T4 sequence (P20813 1-491): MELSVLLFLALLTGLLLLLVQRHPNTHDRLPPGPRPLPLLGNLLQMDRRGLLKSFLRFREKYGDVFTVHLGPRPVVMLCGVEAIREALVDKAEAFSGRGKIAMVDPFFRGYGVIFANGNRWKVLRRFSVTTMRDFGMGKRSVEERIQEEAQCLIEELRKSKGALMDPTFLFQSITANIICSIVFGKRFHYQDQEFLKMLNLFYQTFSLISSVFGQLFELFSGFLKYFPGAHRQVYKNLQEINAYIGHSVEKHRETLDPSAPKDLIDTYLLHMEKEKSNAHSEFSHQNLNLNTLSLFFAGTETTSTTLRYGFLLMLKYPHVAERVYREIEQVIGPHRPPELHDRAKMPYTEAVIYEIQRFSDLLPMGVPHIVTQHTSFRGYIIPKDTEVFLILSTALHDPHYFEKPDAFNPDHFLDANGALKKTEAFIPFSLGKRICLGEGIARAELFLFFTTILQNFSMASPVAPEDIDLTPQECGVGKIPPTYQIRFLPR

CYP2B6 [3] = biological target: T4, CYP2B6; experiment: CYP reversible inhibition in HLMs; type: in vitro ADME
[4] = human, HEK293 cells overexpressing OAT3 (and MOCK cells), probe estrone sulfate

Question: For C=CC(=O)N1CCC([C@@H]2CCNc3c(C(N)=O)c(-c4ccc(Oc5ccccc5)cc4)nn32)CC1 [zanubrutinib], which “Inhibition of uptake activity” value (OAT3; 0.05–5 µM) is on record?
Answer: not inhibited

Question: And the activity at 0.05 µM (OAT3; [4])?
Answer: 90 ± 4.2%

Question: What about the activity at 0.2 µM (OAT3; [4]) of the same molecule?
Answer: 97.8 ± 7.7%

Question: And the activity at 1 µM (OAT3; [4])?
Answer: 113 ± 27%

Question: And the activity at 5 µM (OAT3; [4])?
Answer: 199 ± 34%

Question: And the “Metabolism in liver microsomes” value [1]?
Answer: extensively metabolized

Question: And the BCRP substrate status (human BCRP)?
Answer: unlikely to be a substrate

Question: What about the “Effect on exposure of BCRP probe rosuvastatin” value (BCRP) of the same molecule?
Answer: did not significantly affect the exposure

Question: And the Substrate status (OATP1B3)?
Answer: unlikely to be a substrate

Question: And the EC50 at 2 days (CYP1A2)?
Answer: 0.29 µM

Question: And the “Percent loss of enzymatic activity” value (CYP2B6 [2])?
Answer: 15.5%

Question: And the IC50 (CYP2B6 [3])?
Answer: 121 µM

Question: What about the Ki (CYP2B6 [3]; Ki, bupropion, Ki = IC50/2) of the same molecule?
Answer: 60.5 µM

Question: What about the Ki (CYP2B6 [3]; Kiu, bupropion, unbound Ki) of the same molecule?
Answer: 47.8 µM

Question: And the R1 (CYP2B6 [3]; bupropion, DDI basic model, hepatic)?
Answer: 1.00

Question: What about the Ah (CYP2B6 [3]; bupropion, static model term, liver inhibition) of the same molecule?
Answer: 1.00
